Data taken from PMC12024814, “Ruthenium(II)–Arene Complexes with a 2,2′-Bipyridine Ligand as Anti-Aβ Agents” (Biomolecules, 2025).

Columns and labels:
Aβ40 = biological target: T1, Aβ40 (Homo sapiens, UniProt P05067); test: Dynamic light scattering (DLS) of ThT assay samples; format: biochemical; conditions: for DLS prominent peak particle size / DLS minor feature share of the total spectrum / DLS minor feature particle size: Aβ40 co-incubated with complex 6 h; for DLS prominent peak particle size: PBS pH 7.4, 37 °C, Aβ40 alone around 340 nm; for DLS minor feature share of the total spectrum: Aβ40 alone 13 percent; for DLS minor feature particle size: Aβ40 alone 78 nm; for Ranking DLS: scale 1 to 5 (1 = best, 5 = worst)
T1 construct: Lyophilized Aβ40 was monomerized following previous procedures; purchased GenScript
T1 sequence (P05067 672-711 limits assumed): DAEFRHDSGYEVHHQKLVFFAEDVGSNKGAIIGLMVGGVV
Method: Samples were extracted from the ThT assay plate for DLS analysis. A 125 μL sample was placed into a 1 mL syringe and injected through a syringe filter (pore size: 0.2 μm), into a 0.5 mL microcentrifuge tube. The filtrate was added to a microvolume polystyrene cuvette and placed into a Malvern Zetasizer Nano ZSP to measure the DLS spectra. Measurements are represented as an average of percent intensity through several runs determined by Zetasizer software Version 7.13.1.
Samples for DLS analysis were taken directly from the ThT assay following its completion. This allowed for a comparison between both data sets, to determine if a correlation for activity between the complexes could be established. For the Aβ40 peptide alone, a prominent peak around 340 nm was observed, while following treatment with the respective Ru complexes, a discernable shift to smaller particle sizes was unanimously observed (Figure 6).

[1] = Log D7.4 (1-octanol/PBS shake method, absorbance); format: physicochemical; conditions: 1-octanol/PBS pH 7.4, 50 μM, 2 h mixing at room temperature
Method: A stock solution was prepared from each Ru complex using dimethyl sulfoxide (DMSO), then diluted to 6 mL and a concentration of 50 μM using phosphate-buffered saline (PBS, pH 7.4), where the final DMSO concentration was less than 5%. The absorbance spectra were measured, then 6 mL of 1-octanol was added, and the resulting biphasic sample was mixed at room temperature for 2 h using an IKA Trayster inversion mixer (60 rpm). Following this, the aqueous layer was extracted, and its absorbance spectra were measured. Log D values were determined using the equation below: LogD7.4=logAbs @ λmax before mixing/Abs @ λmax after mixing−1
The ability of Aβ-targeting therapeutics to cross the blood–brain barrier (BBB) is essential for their success. […] For predicting passage across the BBB, one metric that is used is the n-octanol/water partition coefficient of the molecule (log P). For Ru therapeutics, pH can play an important role in the speciation and stability of the complex; therefore, the determination of log D was performed. For such an analysis, the complexes were initially dissolved in DMSO, then diluted using PBS. After initial absorption measurements, the aqueous samples were mixed with an equal volume of 1-octanol for 2 h. The short mixing time is necessary to minimize any ligand exchange that may occur (vide infra), while still providing an accurate value for the partitioning. […] To the best of our knowledge, the partitioning for these complexes has not been evaluated previously, while the values obtained are similar to previous Ru(II)–arene complexes with bidentate ligands.

C6 glioma cells = test: MTT cell viability assay, C6 glioma cells; format: cell-based, Rattus norvegicus; conditions: for Ranking Cytotoxicity: scale 1 to 5 (1 = best, 5 = worst), C6 glioma cells; for cell morphology versus DMSO-treated control (confocal microscopy): 20 µM
Method: Cultures of adherent Rattus norvegicus pheochromocytoma cells (PC-12; ATCC CRL-1721) and axenic Rattus norvegicus C6 glioma cells (ATTC CCL-107) were prepared as previously reported. The cells were cultured using Dulbecco’s Modified Eagle’s medium with low glucose, sodium pyruvate, and without phenol red or L-glutamine (DMEM REF:11054-020; GIBCO; Waltham, MA, USA) and supplemented with 1.5% (v/v) heat-inactivated fetal bovine serum (GIBCO; Waltham, MA, USA), 10% (v/v) sterile filtered horse serum (Sigma-Aldrich, St. Louis, MO, USA), and 4% sterile L-glutamine (Sigma-Aldrich; St. Louis, MO, USA). Medium supplemented with sera was referred to as “complete medium”, while non-supplemented medium was designated as “incomplete”.
For the viability assays, both cell types were grown to confluency before being trypsinized, resuspended in 1 mL of complete medium per confluent well of a 6-well plate, diluted ten-fold, and then counted with a Scepter 2.0 Handheld Automated Cell Counter (Millipore, Burlington, MA, USA) affixed with a 60 µm sensor. Cells were subsequently seeded (adding 100 µL per well, thus adding an average of 1.0 × 10^4 cells per well) into poly-L-lysine-coated flat-bottomed 96-wells using separate plates for each cell type. Stock solutions of the Ru complexes were prepared in DMSO, with an appropriate dilution using DMSO to the testing concentrations of 40, 20, 2, or 0.2 µM. In all cases, the final concentration of DMSO was 1% with cell incubations. Solutions of the Ru complexes or DMSO were introduced 24 h after cell plating and incubated a further 24 h unless otherwise indicated. Replicate wells (n = 4) were set up for each experimental variation. No cell controls were also set up, containing the Ru complex in DMSO additions, so that potential spectral signals could be blanked out for the spectrophotometric 3-[4,5-dimethylthiazol-2-yl]-2,5-diphenyltetrazoliumbromide (MTT) viability assay, as described below.
To assess the viability of the cells with and without Ru additions, cell viability tests were performed using an MTT assay following the procedure of Mosmann with the following variations: Before adding the MTT reagent (5 mg/mL water), 90 µL of the complete medium was removed from each well, and 90 µL of incomplete medium was added. Then, 10 µL of MTT reagent was added per well, gently mixed, and incubated at ambient temperature for one hour. The reactions were stopped by the addition of 100 µL per well of the stopping reagent (10% v/v Triton X-100, 1 mM HCl in isopropanol) to lyse the cells and dissolve the formed formazan crystals. The absorbance values were recorded using a Bio-Rad® Microplate Reader Benchmark at 595 nm. All MTT data were normalized to the DMSO controls by calculating the average percent of DMSO control with the following formula: average cell+Ru MTT−average (Ru blank MTT)/average control cell MTT−average (control blank MTT) × 100
Data were obtained from 4 replicates and reported as a percent of control cells.
A final step in the evaluation of the Ru complexes was completed using a standard MTT cell viability assay towards two neuronal cells lines. The cell lines used were glial cells, as these are the most abundant cell type within the brain [61], and chromaffin cells, which would provide an indication regarding stress response. Taken together, these would provide information regarding the overall biocompatibility of the Ru complexes.

[2] = system: pheochromocytoma cells (PC-12); test: MTT cell viability assay, PC-12 cells; format: cell-based, Rattus norvegicus; conditions: 24 h
Method: Cultures of adherent Rattus norvegicus pheochromocytoma cells (PC-12; ATCC CRL-1721) and axenic Rattus norvegicus C6 glioma cells (ATTC CCL-107) were prepared as previously reported. The cells were cultured using Dulbecco’s Modified Eagle’s medium with low glucose, sodium pyruvate, and without phenol red or L-glutamine (DMEM REF:11054-020; GIBCO; Waltham, MA, USA) and supplemented with 1.5% (v/v) heat-inactivated fetal bovine serum (GIBCO; Waltham, MA, USA), 10% (v/v) sterile filtered horse serum (Sigma-Aldrich, St. Louis, MO, USA), and 4% sterile L-glutamine (Sigma-Aldrich; St. Louis, MO, USA). […]
For the viability assays, both cell types were grown to confluency before being trypsinized, resuspended in 1 mL of complete medium per confluent well of a 6-well plate, diluted ten-fold, and then counted with a Scepter 2.0 Handheld Automated Cell Counter (Millipore, Burlington, MA, USA) affixed with a 60 µm sensor. […]
To assess the viability of the cells with and without Ru additions, cell viability tests were performed using an MTT assay following the procedure of Mosmann with the following variations: Before adding the MTT reagent (5 mg/mL water), 90 µL of the complete medium was removed from each well, and 90 µL of incomplete medium was added. […] The absorbance values were recorded using a Bio-Rad® Microplate Reader Benchmark at 595 nm. […]

| Compound | DLS prominent peak particle size (Aβ40) [nm] | DLS minor feature share of the total spectrum (Aβ40) [%] | DLS minor feature particle size (Aβ40) [nm] | Ranking DLS (Aβ40) | Log D7.4 [1] | Ranking Cytotoxicity (C6 glioma cells) | cell morphology versus DMSO-treated control (confocal microscopy) (C6 glioma cells; C6 cells, 24 h) | toxicity (MTT) (C6 glioma cells; C6 cells, 20 and 40 µM, 24 h) | toxicity (MTT) ([2]; 20 and 40 µM) | IC50 (cell viability) ([2]; tested 0.2–40 µM) |
| --- | --- | --- | --- | --- | --- | --- | --- | --- | --- | --- |
| Cc1ccc(C(C)C)cc1.Cc1ccnc(-c2cc(C)ccn2)c1.F[P-](F)(F)(F)(F)F.[Cl-].[Ru+2] [RuBMe, [Ru(η^6-p-cymene)(4,4′-dimethyl-2,2′-bipyridine)Cl]PF6] | 214 | 2 | 24 | 1 | −0.99 ± 0.13 | 2 | – | – | – | – |
| [Ru(η^6-p-cymene)(4,4′-dimethoxy-2,2′-bipyridine)Cl]PF6 [RuBMeO] | 239 | 11 | 32 | 2 | −0.74 ± 0.08 | 3 | – | – | – | – |
| [Ru(η^6-p-cymene)(4,4′-di-tert-butyl-2,2′-bipyridine)Cl]PF6 [RuBtB] | 264 | 4 | 53 | 5 | 0.84 ± 0.03 | 5 | severely reduced in numbers and cell shapes | substantial toxicity | substantial toxicity | below the concentrations evaluated |
| Cc1ccc(C(C)C)cc1.F[P-](F)(F)(F)(F)F.[Cl-].[Ru+2].c1ccc(-c2ccccn2)nc1 [RuB, [Ru(η^6-p-cymene)(2,2′-bipyridine)Cl]PF6] | 227 | 4 | 21 | 3 | −1.90 ± 0.15 | 4 | – | – | – | – |
| [Ru(η^6-p-cymene)(4,4′-diamino-2,2′-bipyridine)Cl]PF6 [RuBA] | 231 | 3 | 42 | 4 | −0.55 ± 0.03 | 1 | virtually indistinguishable | – | – | – |
